Read-outs that look alike come from different tables or passages of the source.
What was measured:
[1] = in vivo; cited from earlier work
[2] = tested on: uninfected cells; assay: Cytotoxicity, neutral red uptake by toxicity control cells (rhinovirus host cells, not named); assay type: cell-based; settings: read-out: Neutral Red Uptake test IC50
Experimental: (§1) Cytotoxicity of each test compound is also evaluated as follows. In the initial CPE inhibition tests, two wells of uninfected cells treated with each concentration of test compound are run in parallel with the infected, treated wells. When the CPE is determined microscopically, the toxicity control cells are also examined microscopically for any changes in cell appearance compared to normal uninfected, untreated control cells. Changes, which may manifest as enlargement, granularity, ragged edges, filmy appearance, rounding, detachment from the surface of the well, or other changes, are given a designation of T (100% toxic), PVH (partially toxic-very heavy-80%), PH (partially toxic-heavy-60%), P (partially toxic-40%), PS (partially toxic-slight-20%) or 0 (no toxicity-0%) in accordance with the degree of cytotoxicity observed. […] A neutral red IC50 is also determined based on uptake of neutral red dye by the toxicity control cells.

[3] = tested on: Madin Darby canine kidney (MDCK) cells; assay: cells; assay type: cell-based; settings: Canis lupus familiaris, cytotoxic concentration, positive control drug = ribavirin, read-out: Neutral Red Uptake test IC50
[4] = tested on: African green monkey kidney (MA-104) cells; assay: Cytotoxicity, neutral red uptake by toxicity control cells; assay type: cell-based; settings: Chlorocebus sabaeus, read-out: Neutral Red Uptake test IC50
[5] = tested on: African green monkey kidney (MA-104) cells; assay: cells; assay type: cell-based; settings: Chlorocebus sabaeus, MA104, cytotoxic concentration, positive control drug = ribavirin, read-out: CPE Inhibition test IC50
[6] = tested on: African green monkey kidney (CV-1) cells; assay: cells; assay type: cell-based; settings: Chlorocebus sabaeus, read-out: Neutral Red Uptake test IC50
[7] = tested on: Parainfluenza Type 3 Virus; assay: organism not typed; assay type: cell-based; settings: MA104; read-out: CPE Inhibition test EC50
[8] = tested on: Measles Virus; assay: microbe, parasite or virus in culture; assay type: cell-based; settings: Measles morbillivirus, CV-1; read-out: Neutral Red Uptake test EC50
[9] = tested on: Respiratory Syncytial Virus A; assay: microbe, parasite or virus in culture; assay type: cell-based; settings: human respiratory syncytial virus, MA104; read-out: CPE Inhibition test EC50
[10] = tested on: Rhinovirus Type 5; assay: Neutral red uptake test; assay type: cell-based; settings: Enterovirus, read-out: Neutral Red Uptake test EC50
Source text: Environment. Microbiol, 31:35-38, 1976).

[11] = tested on: human lung carcinoma (A549) cells; assay: cells; assay type: cell-based; settings: read-out: CPE Inhibition test IC50
[12] = tested on: Madin Darby canine kidney (MDCK) cells; assay: cells; assay type: cell-based; settings: Canis lupus familiaris, cytotoxic concentration, positive control drug = ribavirin, read-out: CPE Inhibition test IC50
[13] = tested on: Parainfluenza Type 3 Virus; assay: organism not typed; assay type: cell-based; settings: MA104; read-out: Neutral Red Uptake test EC50
[14] = tested on: Adenovirus Type 1; assay: microbe, parasite or virus in culture; assay type: cell-based; settings: Human mastadenovirus C, A549; read-out: Neutral Red Uptake test EC50
[15] = tested on: African green monkey kidney (CV-1) cells; assay: cells; assay type: cell-based; settings: Chlorocebus sabaeus, read-out: CPE Inhibition test IC50
[16] = tested on: Rhinovirus Type 5; assay: microbe, parasite or virus in culture; assay type: cell-based; settings: Enterovirus; read-out: CPE Inhibition test EC50
[17] = tested on: uninfected cells; assay: Cytotoxicity, microscopic reading of uninfected cells in the CPE inhibition test (rhinovirus host cells, not named); assay type: cell-based
Experimental: as §1

[18] = tested on: Respiratory Syncytial Virus A; assay: microbe, parasite or virus in culture; assay type: cell-based; settings: human respiratory syncytial virus, MA104; read-out: Neutral Red Uptake test EC50
[19] = tested on: Measles Virus; assay: microbe, parasite or virus in culture; assay type: cell-based; settings: Measles morbillivirus, CV-1; read-out: CPE Inhibition test EC50
[20] = tested on: Adenovirus Type 1; assay: microbe, parasite or virus in culture; assay type: cell-based; settings: Human mastadenovirus C, A549; read-out: CPE Inhibition test EC50
[21] = tested on: CMV strain VHL/E or strain BUR/E; assay type: cell-based; settings: HUVEC, A771726 200 µM, CsA 100 ng/ml, FK 506 1 ng/ml
[22] = tested on: CMV strain VHL/E; assay: Immunohistochemical staining of CMV proteins in infected HUVEC; assay type: cell-based
Experimental: Experiments were conducted to determine at which point in the viral replication cycle leflunomide exerts its inhibitory effects. Immediately upon penetration of the host cell, CMV lower matrix protein pp65, a component of the viral tegument, translocates to the cell nucleus. Although the nuclear function of pp65 remains to be resolved, another tegument protein (pp71) that migrates in a similar manner acts in concert with cellular proteins to promote rapid transcription of immediate early (IE) viral genes. IE gene products are primarily regulatory, activating early gene transcription, whose products are essential for viral DNA replication. Activation of late genes, which code primarily for structural protein components of the virion, occurs late in the replicative cycle and is dependent upon viral DNA replication.
To localize potential A771726-induced lesions in this temporal series of events, a cross section of CMV proteins in infected cells was first visualized by immunohistochemical staining as follows. CMV strain VHL/E-inoculated HUVEC monolayers incubated in the presence or absence of 200 µM A771726 or 1 mM phosphonoformate (PFA) (as a positive control for late antigen inhibition) were fixed at various intervals and stained with mAb specific for pp65, 72 kD IE1, or late structural glycoprotein B (gB). […]

[23] = tested on: CMV DNA; assay type: cell-based; settings: CMV-infected HFF (100 µM A771726) , identical in HUVEC (200 µM); 1 mM PFA; 48 hours
[24] = target: T1, CMV DNA polymerase (Human cytomegalovirus, UniProt P08546); assay type: biochemical; settings: extracts of VHL/E-infected HUVEC or P8-infected HFF; PFA result at 1 mM
T1 construct: Crude protein extracts prepared from CMV-infected HUVEC or HFF; endogenous in cells; host or cells: HUVEC infected with CMV VHL/E or BUR/E, and HFF infected with CMV P8; Cells were sonicated and the clarified crude lysate was used

[25] = tested on: rat CMV (RCMV RA67, Maastricht strain); assay: Viral load in nude rats inoculated with rat CMV, plaque assay of tissue homogenates; assay type: in vivo, immunodeficient nude rats; settings: leflunomide 15 mg/kg/day for 14 days, 14 days post-inoculation
[26] = tested on: hepatitis C; assay: Clinical treatment of a patient with chronic hepatitis C, viral load by quantitative PCR; assay type: in vivo, human
Experimental: The patient is a person who received a liver transplant in January 1990 for hepatitis C. Over the following nine years they developed indolent hepatitis C with mildly elevated liver enzymes. Because of slowly progressive kidney impairment, presumably related to a combination of chronic hepatitis C and long term cyclosporine A treatment, they were started on leflunomide treatment. […] After an initial leflunomide loading dose of 300 mg daily for two days, a maintenance dose of 50 mg daily was started.
As the new treatment regimen was implemented, their kidney function improved; their serum creatinine fell from 3.6 mg/dl to 2.2 mg/dl and their BUN fell from 94 mg/dl to 55 mg/dl. Just before leflunomide was begun their hepatitis C viral load in peripheral blood was 3,120,000 copies, measured by quantitative PCR (Quest Diagnostics). After six weeks of therapy with leflunomide, their hepatitis C viral load had fallen to 1,480,000 copies, measured by the same PCR methodology.

[27] = MA104, cytotoxic concentration, run with Parainfluenza Type 3 Virus, positive control drug = ribavirin
[28] = run with Respiratory Syncytial Virus A

T1 sequence (P16790 whole entry): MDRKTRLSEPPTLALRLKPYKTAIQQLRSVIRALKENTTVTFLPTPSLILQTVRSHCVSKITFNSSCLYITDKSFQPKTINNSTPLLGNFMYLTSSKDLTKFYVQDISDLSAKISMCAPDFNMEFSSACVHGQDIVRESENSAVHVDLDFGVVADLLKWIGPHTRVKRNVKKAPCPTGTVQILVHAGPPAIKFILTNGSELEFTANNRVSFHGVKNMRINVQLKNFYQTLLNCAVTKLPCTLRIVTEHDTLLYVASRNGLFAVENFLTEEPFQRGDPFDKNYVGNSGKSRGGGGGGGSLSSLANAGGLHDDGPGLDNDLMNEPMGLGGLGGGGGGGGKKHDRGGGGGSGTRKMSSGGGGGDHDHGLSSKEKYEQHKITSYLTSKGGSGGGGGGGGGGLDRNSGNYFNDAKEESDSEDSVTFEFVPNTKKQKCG
T1 sequence (P08546 whole entry): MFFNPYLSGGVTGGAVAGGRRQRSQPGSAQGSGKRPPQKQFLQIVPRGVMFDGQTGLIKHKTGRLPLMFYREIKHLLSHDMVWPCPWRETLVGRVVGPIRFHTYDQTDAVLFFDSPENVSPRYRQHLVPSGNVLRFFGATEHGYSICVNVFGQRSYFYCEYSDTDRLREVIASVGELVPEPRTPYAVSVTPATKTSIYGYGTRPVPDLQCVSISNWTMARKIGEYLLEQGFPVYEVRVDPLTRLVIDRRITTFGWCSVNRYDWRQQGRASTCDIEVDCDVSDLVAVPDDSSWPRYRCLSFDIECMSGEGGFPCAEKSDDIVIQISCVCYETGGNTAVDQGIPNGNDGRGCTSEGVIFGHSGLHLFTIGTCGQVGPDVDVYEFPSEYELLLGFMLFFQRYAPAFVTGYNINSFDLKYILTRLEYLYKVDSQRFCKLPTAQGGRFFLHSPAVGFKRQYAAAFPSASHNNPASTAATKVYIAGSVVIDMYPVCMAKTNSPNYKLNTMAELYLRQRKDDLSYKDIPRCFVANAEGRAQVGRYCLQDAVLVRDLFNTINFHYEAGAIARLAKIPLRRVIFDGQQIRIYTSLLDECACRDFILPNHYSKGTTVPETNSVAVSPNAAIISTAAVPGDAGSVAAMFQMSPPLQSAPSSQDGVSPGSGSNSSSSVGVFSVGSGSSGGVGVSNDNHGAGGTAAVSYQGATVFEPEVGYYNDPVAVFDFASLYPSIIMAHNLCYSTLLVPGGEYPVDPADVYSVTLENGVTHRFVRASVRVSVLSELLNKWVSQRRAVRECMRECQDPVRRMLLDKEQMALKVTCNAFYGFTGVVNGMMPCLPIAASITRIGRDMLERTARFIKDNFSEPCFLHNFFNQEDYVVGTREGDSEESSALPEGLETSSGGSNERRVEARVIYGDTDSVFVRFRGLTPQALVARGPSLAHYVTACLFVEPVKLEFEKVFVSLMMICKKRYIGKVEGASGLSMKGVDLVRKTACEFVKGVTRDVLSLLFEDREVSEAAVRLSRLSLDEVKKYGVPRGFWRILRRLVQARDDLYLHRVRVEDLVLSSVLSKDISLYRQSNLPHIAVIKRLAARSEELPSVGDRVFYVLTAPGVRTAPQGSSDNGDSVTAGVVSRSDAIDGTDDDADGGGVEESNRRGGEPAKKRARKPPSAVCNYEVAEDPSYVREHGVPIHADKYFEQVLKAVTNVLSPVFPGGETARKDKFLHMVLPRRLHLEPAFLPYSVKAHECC

In the case of `Nc1ccn(C[C@@H](CO)OCP(=O)(O)O)c(=O)n1` [Cidofovir], the “Neutropenia, share of recipients” value [1] is given as “approximately 10%”.

`Cc1nocc1C(=O)Nc1ccc(C(F)(F)F)cc1` [Compound 99-126, N-(4-trifluoromethylphenyl)-3-methylisoxazol-4-carboxamide] showed an IC50 [2] greater than 100 µM, an IC50 ([3]; run with Influenza A (H1N1)) of 48 µM and an IC50 ([3]; run with Influenza A (H3N2)) of 30 µM. It also gave an IC50 ([3]; run with Influenza B) of 46 µM, an IC50 [4, 27] of 20 µM and an IC50 ([4]; MA104) of 30 µM. It also gave an IC50 ([5]; run with Parainfluenza Type 3 Virus) of 11 µM, an IC50 [5, 28] of 40 µM and an IC50 [6] of 25 µM. The EC50 [7] was greater than 100 µM, the EC50 [8] was 14 µM and the EC50 [9] was greater than 100 µM. For the same compound, the EC50 [10] was greater than 100 µM, the IC50 [11] was 60 µM and the IC50 ([12]; run with Influenza A (H1N1)) was 63 µM. The IC50 ([12]; run with Influenza A (H3N2)) was 72 µM, the IC50 ([12]; run with Influenza B) was 72 µM and the EC50 [13] was 20 µM. For the same compound, the EC50 [14] was greater than 100 µM, the IC50 [15] was 60 µM and the EC50 [16] was 100 µM. It also gave an IC50 [17] of 100 µM, an EC50 [18] greater than 100 µM and an EC50 [19] of 10 µM. For the same compound, the EC50 [20] was greater than 100 µM.

For `Cc1oncc1C(=O)Nc1cccc(C(F)(F)F)c1` [Compound 99-127, N-(3-trifluoromethylphenyl)-5-methylisoxazol-4-carboxamide], the IC50 ([3]; run with Influenza A (H1N1)) was 66 µM, the IC50 ([3]; run with Influenza A (H3N2)) was 46 µM and the IC50 ([3]; run with Influenza B) was 60 µM. It also gave an IC50 [4, 27] of 15 µM, an IC50 ([4]; MA104) of 20 µM and an IC50 [5, 28] of 30 µM. The IC50 [6] was 30 µM, the EC50 [7] was greater than 100 µM and the EC50 [8] was greater than 100 µM. It also gave an EC50 [9] greater than 100 µM, an IC50 ([12]; run with Influenza A (H1N1)) greater than 200 µM and an IC50 ([12]; run with Influenza A (H3N2)) of 63 µM. For the same compound, the IC50 ([12]; run with Influenza B) was greater than 200 µM, the EC50 [13] was greater than 100 µM and the IC50 [15] was 60 µM. It also gave an EC50 [18] greater than 100 µM and an EC50 [19] greater than 100 µM.

In the case of `C=CC[C@@H]1/C=C(\C)C[C@H](C)C[C@H](OC)[C@H]2O[C@@](O)(C(=O)C(=O)N3CCCC[C@H]3C(=O)O[C@H](/C(C)=C/[C@@H]3CC[C@@H](O)[C@H](OC)C3)[C@H](C)[C@@H](O)CC1=O)[C@H](C)C[C@@H]2OC` [FK 506, tacrolimus], the “production of infectious virus (CMV production)” value [21] is reported as “no significant inhibition”.

In the case of `O=C([O-])P(=O)(O)O.[Na+]` [PFA, sodium phosphonoformate], the “expression of viral proteins pp65, IE1, gB” value ([22]; 200 µM A771726 or 1 mM PFA, 24, 48, 96 hours pi) is reported as “unable to express gB”, the “pp65 and IE1 expression” value ([22]; 1 mM PFA) is reported as “unimpeded” and the “quantities of viral DNA synthesized” value [23] is reported as “no detectable CMV DNA”. The “toxicities (renal dysfunction, hypomagnesemia, hypokalemia, hypocalcemia, seizures, fever, rash), each, share of recipients” value [1] was “more than 5%” and the “viral DNA polymerase activity” value [24] was “complete inhibition”.

In the case of `Cc1oncc1C(=O)Nc1ccc(C(F)(F)F)cc1` [leflunomide, N-(4-trifluoromethylphenyl)-5-methylisoxazol-4-carboxamide], the “viral load in salivary gland, lung and spleen” value [25] is reported as “significantly reduced viral load”, the “hepatitis C viral load in peripheral blood” value ([26]; after six weeks of leflunomide (300 mg daily two days, then 50 mg daily), 3,120,000 copies before) is reported as 1,480,000 copies and the “drop in hepatitis C viral load” value ([26]; one patient, six weeks of leflunomide therapy) is reported as 50%.

From EP1169036B1, “ANTI-VIRAL USES OF LEFLUNOMIDE PRODUCTS” (priority 1998, dated 1999)
